Results reported in patent publication US9850227B2 (YUHAN CORPORATION, priority 2011, dated 2017).
Structures can show the parent of a compound that is named as a salt.

Biological target: T1, human 5-HT4(a) (Homo sapiens, UniProt Q13639)
T1 construct: host or cells: GeneBIAzer HTR4-CRE-bla CHO-K1 cells
Assay: Evaluation of agonistic activity in CHO-K1 cells expressing human 5-HT4(a) (GeneBIAzer HTR4-CRE-bla CHO-K1 cells, beta-lactamase fluorescence ratio, EC50 from 8 concentrations)
Type: cell-based
Protocol: Evaluation of Agonistic Activity in CHO-K1 Cells Expressing Human 5-HT4(a)
As CHO-K1 cells stably expressing human 5-HT4(a), we used the GeneBIAzer HTR4-CRE-bla CHO-K1 cells (Invitrogen Corp.). The cells were cultured, under the condition of 37° C. and 5% CO2, in a DMEM supplemented with 10% fetal bovine serum (FBS), 25 mM HEPES (pH7.4), 600 μg/ml hygromycin B, 0.1 mM non-essential amino acids, 100 unit/ml penicillin and 100 μg/ml streptomycin. Subcultures were performed three times per one week, each being at less than 80% confluence. At the previous day before treating test compounds, the cells were collected using 0.5% trypsin/EDTA and then diluted with a DMEM supplemented with 1% FBS, 25 mM HEPES, and 0.1 mM non-essential amino acids into 3.125×10^5 cells/ml. 32 μl of the diluted cells were added into 384-well plate (10^4 cells per well) and then incubated overnight. After the overnight culture, 8 μl of the medium having 1% of DMSO was added into the cell-free control well and the non-stimulating control well, respectively. 8 μl of the respective test compound dilutions (which had been prepared by diluting by 100-times with the medium as mentioned in the above) having 1% of DMSO were added to the respective remaining wells. After being cultured in the incubator for 5 hours, the wells of the 384-plate were treated with the substrate solution (8 μl per well) prepared according to the vendor's instruction (i.e., Invitrogen's instruction), and then incubated in the dark room for additional two hours. Agonistic activities on 5-HT4 receptor were evaluated, on the basis of fluorescence values of the cleavage-products by beta-lactamase. After exciting to 410 nm of wavelength using a fluorescence detector (Genios Pro), we measured the fluorescence values at two emission wavelengths (first wavelength: 465 nm, second wavelength: 535 nm). Data were analyzed on the basis of the ratio of fluorescence intensities of each well at the respective wavelengths. Each EC50 value was calculated by non-linear regression analysis using the “GraphPad Prism” program, based on the activities according to 8-different concentrations of the test compounds.

T1 sequence (Q13639 1-387 isoform Q13639-2): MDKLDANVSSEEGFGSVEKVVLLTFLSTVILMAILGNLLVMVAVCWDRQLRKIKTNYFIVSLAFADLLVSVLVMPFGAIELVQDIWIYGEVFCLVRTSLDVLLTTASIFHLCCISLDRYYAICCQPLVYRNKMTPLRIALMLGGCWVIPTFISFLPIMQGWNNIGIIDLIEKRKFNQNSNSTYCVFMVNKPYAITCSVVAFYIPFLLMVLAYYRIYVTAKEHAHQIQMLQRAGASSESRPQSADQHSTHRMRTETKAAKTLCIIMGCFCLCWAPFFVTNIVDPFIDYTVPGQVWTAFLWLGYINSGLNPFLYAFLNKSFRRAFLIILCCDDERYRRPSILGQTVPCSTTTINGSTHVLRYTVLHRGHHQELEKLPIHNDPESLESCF

| EC50 | SMILES |
| --- | --- |
| 0.19 nM | CCCCc1cc(N2CCCCC2CCO)nc(Nc2ccc(F)cc2)n1 (centres unmarked) [Example 22, 2-{1-[6-butyl-2-(4-fluorophenylamino)pyrimidin-4-yl]piperidin-2-yl}ethanol] |
| 0.026 nM | CCCc1cc(N2CCCCC2CCO)nc(Nc2ccc(Cl)c([N+](=O)[O-])c2)n1 (centres unmarked) [Example 24, 2-{1-[2-(4-chloro-3-nitrophenylamino)-6-propylpyrimidin-4-yl]piperidin-2-yl}ethanol] |
| 0.073 nM | CCCc1cc(N2CCCCC2CCO)nc(Nc2cccc(SC)c2)n1 (centres unmarked) [Example 25, 2-(1-{2-[3-(methylthio)phenylamino]-6-propylpyrimidin-4-yl}piperidin-2-yl)ethanol] |
| 0.26 nM | CCCc1cc(N2CCCCC2)nc(Nc2ccc(F)c([N+](=O)[O-])c2)n1 [Example 40, N-(4-fluoro-3-nitrophenyl)-4-(piperidin-1-yl)-6-propylpyrimidin-2-amine] |
| 0.27 nM | CCCc1cc(N2CCCCC2)nc(Nc2ccc(Cl)c([N+](=O)[O-])c2)n1 [Example 45, N-(4-chloro-3-nitrophenyl)-4-(piperidin-1-yl)-6-propylpyrimidin-2-amine] |
| 0.15 nM | CCCc1cc(N2CCCCC2)nc(Nc2ccc(C)c([N+](=O)[O-])c2)n1 [Example 47, N-(4-methyl-3-nitrophenyl)-4-(piperidin-1-yl)-6-propylpyrimidin-2-amine] |
| 0.24 nM | CCCc1cc(N2CCCC3CCCCC32)nc(Nc2ccc3cc[nH]c3c2)n1 (centres unmarked) [Example 73, N-[4-(octahydroquinolin-1(2H)-yl)-6-propylpyrimidin-2-yl]-1H-indol-6-amine] |
| 0.063 nM | CCCc1cc(N2CCCCC2CCO)nc(Nc2ccc3cc[nH]c3c2)n1 (centres unmarked) [Example 74, 2-{1-[2-(1H-indol-6-ylamino)-6-propylpyrimidin-4-yl]piperidin-2-yl}ethanol] |
| 0.061 nM | CCCc1cc(N2CCCCC2)nc(Nc2ccc3cc[nH]c3c2)n1 [Example 76, N-[4-(piperidin-1-yl)-6-propylpyrimidin-2-yl]-1H-indol-6-amine] |
| 0.084 nM | CCCc1cc(N2CCOCC2)nc(Nc2ccc3cc[nH]c3c2)n1 [Example 77, N-(4-morpholino-6-propylpyrimidin-2-yl)-1H-indol-6-amine] |
| 0.12 nM | CCCc1cc(N2CCCCC2CC)nc(Nc2ccc3cc[nH]c3c2)n1 (centres unmarked) [Example 78, N-[4-(2-ethylpiperidin-1-yl)-6-propylpyrimidin-2-yl]-1H-indol-6-amine] |
| 0.096 nM | CCCc1cc(N2CCNC[C@H]2C)nc(Nc2cccc(C#N)c2)n1 [Example 82, (R)-3-[4-(2-methylpiperazin-1-yl)-6-propylpyrimidin-2-ylamino]benzonitrile dihydrochloride] |
| 0.36 nM | CCCc1cc(N2CCOCC2)nc(Nc2cccc([N+](=O)[O-])c2)n1 [Example 83, 4-morpholino-N-(3-nitrophenyl)-6-propylpyrimidin-2-amine hydrochloride] |
| 0.27 nM | CCCc1cc(N2CCOCC2)nc(Nc2ccc(F)c([N+](=O)[O-])c2)n1 [Example 84, N-(4-fluoro-3-nitrophenyl)-4-morpholino-6-propylpyrimidin-2-amine hydrochloride] |
| 0.37 nM | CCCc1cc(N2CCCCC2CC)nc(Nc2cccc([N+](=O)[O-])c2)n1 (centres unmarked) [Example 99, 4-(2-ethylpiperidin-1-yl)-N-(3-nitrophenyl)-6-propylpyrimidin-2-amine] |
| 0.2 nM | CCCc1cc(N2CCCCC2CC)nc(Nc2ccc(F)c([N+](=O)[O-])c2)n1 (centres unmarked) [Example 100, 4-(2-ethylpiperidin-1-yl)-N-(4-fluoro-3-nitrophenyl)-6-propylpyrimidin-2-amine] |
| 0.24 nM | CCCc1cc(N2CCCCC2CC)nc(Nc2ccc(Cl)c([N+](=O)[O-])c2)n1 (centres unmarked) [Example 101, N-(4-chloro-3-nitrophenyl)-4-(2-ethylpiperidin-1-yl)-6-propylpyrimidin-2-amine] |
| 0.47 nM | CCCc1cc(N2CCCCC2CC)nc(Nc2cccc(OC)c2)n1 (centres unmarked) [Example 102, 4-(2-ethylpiperidin-1-yl)-N-(3-methoxyphenyl)-6-propylpyrimidin-2-amine] |
| 0.36 nM | CCCc1cc(N2CCCCC2CC)nc(Nc2cccc(SC)c2)n1 (centres unmarked) [Example 104, 4-(2-ethylpiperidin-1-yl)-N-[3-(methylthio)phenyl]-6-propylpyrimidin-2-amine] |

| EC50 | SMILES |
| --- | --- |
| 0.32 nM | CCCc1cc(N2CCCCC2CC)nc(Nc2ccc3nc(C(F)(F)F)[nH]c3c2)n1 (centres unmarked) [Example 109, N-[4-(2-ethylpiperidin-1-yl)-6-propylpyrimidin-2-yl]-2-(trifluoromethyl)-1H-benzo[d]imidazol-6-amine] |
| 0.091 nM | CCCc1cc(N2CCCCC2CC)nc(Nc2cccc(C#N)c2)n1 (centres unmarked) [Example 111, 3-[4-(2-ethylpiperidin-1-yl)-6-propylpyrimidin-2-ylamino]benzonitrile] |
| 0.37 nM | CCCc1cc(N2CCCCC2CC)nc(Nc2cc(OC)ccc2C)n1 (centres unmarked) [Example 112, 4-(2-ethylpiperidin-1-yl)-N-(5-methoxy-2-methylphenyl)-6-propylpyrimidin-2-amine] |
| 0.31 nM | CCCc1cc(N2CCCCC2CC)nc(Nc2cnc3ccccc3c2)n1 (centres unmarked) [Example 114, N-[4-(2-ethylpiperidin-1-yl)-6-propylpyrimidin-2-yl]quinolin-3-amine] |
| 0.077 nM | CCCc1cc(N2CCNC[C@H]2C)nc(Nc2ccc(Cl)c([N+](=O)[O-])c2)n1 [Example 117, (R)-N-(4-chloro-3-nitrophenyl)-4-(2-methylpiperazin-1-yl)-6-propylpyrimidin-2-amine] |
| 0.024 nM | CCCc1cc(N2CCNC[C@H]2C)nc(Nc2ccc3cc[nH]c3c2)n1 [Example 118, (R)-N-[4-(2-methylpiperazin-1-yl)-6-propylpyrimidin-2-yl]-1H-indol-6-amine] |
| 0.156 nM | CCCc1cc(N2CCNC[C@H]2C)nc(Nc2cccc(C(F)(F)F)c2)n1 [Example 119] |
| 0.073 nM | CCCc1cc(N2CCNC[C@H]2C)nc(Nc2cccc([N+](=O)[O-])c2)n1 [Example 120] |
| 0.093 nM | CCCc1cc(N2CCNC[C@H]2C)nc(Nc2ccc(F)c([N+](=O)[O-])c2)n1 [Example 121, (R)-N-(4-fluoro-3-nitrophenyl)-4-(2-methylpiperazin-1-yl)-6-propylpyrimidin-2-amine] |
| 0.011 nM | CCCc1cc(N2CCNC[C@H]2C)nc(Nc2ccc(C)c([N+](=O)[O-])c2)n1 [Example 122, (R)-N-(4-methyl-3-nitrophenyl)-4-(2-methylpiperazin-1-yl)-6-propylpyrimidin-2-amine] |
| 0.121 nM | CCCc1cc(N2CCNC[C@H]2C)nc(Nc2ccc(F)c(N)c2)n1 [Example 123, (R)-4-fluoro-N^1-[4-(2-methylpiperazin-1-yl)-6-propylpyrimidin-2-yl]benzene-1,3-diamine] |
| 0.028 nM | CCCc1cc(N2CCNC[C@H]2C)nc(Nc2ccc(N)c(C(F)(F)F)c2)n1 [Example 124, (R)-N^1-[4-(2-methylpiperazin-1-yl)-6-propylpyrimidin-2-yl]-3-(trifluoromethyl)benzene-1,4-diamine] |
| 0.051 nM | CCCc1cc(N2CCNC[C@H]2C)nc(Nc2ccc(F)c(C#N)c2)n1 [Example 125, (R)-2-fluoro-5-[4-(2-methylpiperazin-1-yl)-6-propylpyrimidin-2-ylamino]benzonitrile] |
| 0.013 nM | CCCc1cc(N2CCNC[C@H]2C)nc(Nc2ccc(C)c(C#N)c2)n1 [Example 126, (R)-2-methyl-5-[4-(2-methylpiperazin-1-yl)-6-propylpyrimidin-2-ylamino]benzonitrile] |
| 0.053 nM | CCCc1cc(N2CCNC[C@H]2C)nc(Nc2ccc(N)c(C#N)c2)n1 [Example 127, (R)-2-amino-5-[4-(2-methylpiperazin-1-yl)-6-propylpyrimidin-2-ylamino]benzonitrile] |
| 0.0049 nM | CCCc1cc(N2CCNC[C@H]2C)nc(Nc2ccc(N)c([N+](=O)[O-])c2)n1 [Example 128, (R)-N^1-[4-(2-methylpiperazin-1-yl)-6-propylpyrimidin-2-yl]-3-nitrobenzene-1,4-diamine] |
| 0.0041 nM | CCCc1cc(N2CCNC[C@H]2C)nc(Nc2cc(N)cc(C#N)c2)n1 [Example 129, (R)-3-amino-5-[4-(2-methylpiperazin-1-yl)-6-propylpyrimidin-2-ylamino]benzonitrile] |
| 0.12 nM | CCCc1cc(N2CCCCC2CCO)nc(Nc2cccc(C#N)c2)n1 (centres unmarked) [Example 131, 3-{4-[2-(2-hydroxyethyl)piperidin-1-yl]-6-propylpyrimidin-2-ylamino}benzonitrile] |
| 0.35 nM | CCCc1cc(N2CCCCC2CCO)nc(Nc2ccc3nc(C(F)(F)F)[nH]c3c2)n1 (centres unmarked) [Example 136, 2-(1-{6-propyl-2-[2-(trifluoromethyl)-1H-benzo[d]imidazol-6-ylamino]pyrimidin-4-yl}piperidin-2-yl)ethanol] |
